This note sets out measurements from PubChem BioAssay AID248 (DTP/NCI, 2004).

Each structure is given as a SMILES string. Several values for one entry are separate records, joined by “and”; a condition that tells them apart may be missing. Equal values may be shown once. Inconclusive results and toxic doses are left out.

In the assay the test system is L1210 leukemia ip in BDF1 mice, survival T/C. The assay is described as follows: NCI In Vivo Anticancer Drug Screen. Data for tumor model L1210 Leukemia (intraperitoneal) in B6D2F1 (BDF1) mice. The conditions noted are these: endpoint: mean survival time, higher = longer survival. The procedure, abridged:
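Ratio derived from survival: compound-dosed mice over vehicle-dosed mice, all bearing a transplantable tumor.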

[1] abbreviates: dose: 75.0 mg/kg/injection, schedule: Q01DX001 (ip), vehicle: saline.
Where [2] appears, read: dose: 150.0 mg/kg/injection, schedule: Q01DX001 (ip), vehicle: saline.
Setting [3] is: dose: 12.5 mg/kg/injection, schedule: Q01DX009 (ip), vehicle: Klucel (hydroxypropylcellulose) (HPC).
Where [4] appears, read: dose: 100.0 mg/kg/injection, schedule: Q04DX003 (ip), vehicle: Klucel (hydroxypropylcellulose) (HPC).
The mark [5] stands for this setting: dose: 100.0 mg/kg/injection, schedule: Q01DX009 (ip), vehicle: saline with Tween-80.
The mark [6] stands for this setting: dose: 100.0 mg/kg/injection, schedule: Q04DX003 (ip), vehicle: saline with Tween-80.
Setting [7] is: dose: 200.0 mg/kg/injection, schedule: Q01DX009 (ip), vehicle: saline with Tween-80.
Where [8] appears, read: dose: 200.0 mg/kg/injection, schedule: Q04DX003 (ip), vehicle: saline with Tween-80.
Setting [9] is: dose: 400.0 mg/kg/injection, schedule: Q01DX009 (ip), vehicle: saline with Tween-80.
[10] abbreviates: dose: 400.0 mg/kg/injection, schedule: Q04DX003 (ip), vehicle: saline with Tween-80.
[11] abbreviates: dose: 100.0 mg/kg/injection, schedule: Q04DX003 (ip), vehicle: other.
Setting [12] is: dose: 200.0 mg/kg/injection, schedule: Q04DX003 (ip), vehicle: other.
[13] abbreviates: dose: 400.0 mg/kg/injection, schedule: Q04DX003 (ip), vehicle: other.
Setting [14] is: dose: 200.0 mg/kg/injection, schedule: Q04DX003 (ip), vehicle: Klucel (hydroxypropylcellulose) (HPC).
The mark [15] stands for this setting: dose: 400.0 mg/kg/injection, schedule: Q04DX003 (ip), vehicle: Klucel (hydroxypropylcellulose) (HPC).

In the case of `OC(CN(CCCl)CCCl)C(O)C(O)C(O)CN(CCCl)CCCl` (stereo not drawn), the T/C (dose: 0.06 mg/kg/injection, schedule: Q01DX Z (ip), vehicle: saline) was 102 % of control; the T/C (dose: 0.1 mg/kg/injection, schedule: Q01DX Z (ip), vehicle: saline) is 102 % of control; the T/C (dose: 0.15 mg/kg/injection, schedule: Q01DX Z (ip), vehicle: saline) is 105 % of control; the T/C (dose: 0.23 mg/kg/injection, schedule: Q01DX Z (ip), vehicle: saline) was 110 % of control; the T/C (dose: 0.25 mg/kg/injection, schedule: Q01DX Z (ip), vehicle: saline) was 103 % of control; the T/C (dose: 0.35 mg/kg/injection, schedule: Q01DX001 (ip), vehicle: saline) was 150 % of control. For the same molecule, the T/C is 108 % of control (dose: 0.6 mg/kg/injection, schedule: Q01DX Z (ip), vehicle: carboxymethylcellulose (CMC)); 154 % of control (dose: 0.8 mg/kg/injection, schedule: Q01DX001 (ip), vehicle: saline); 153 % of control and 170 % of control (dose: 0.8 mg/kg/injection, schedule: Q01DX Z (ip), vehicle: saline); 102 % of control (dose: 0.9 mg/kg/injection, schedule: Q01DX Z (ip), vehicle: carboxymethylcellulose (CMC)); 122 % of control (dose: 1.0 mg/kg/injection, schedule: Q01DX001 (ip), vehicle: saline); 96 % of control (dose: 1.35 mg/kg/injection, schedule: Q01DX Z (ip), vehicle: carboxymethylcellulose (CMC)). Besides, the T/C was 158 % of control (dose: 1.9 mg/kg/injection, schedule: Q01DX001 (ip), vehicle: saline); 174 % of control (dose: 2.0 mg/kg/injection, schedule: Q01DX001 (ip), vehicle: saline); 155 % of control and 188 % of control (dose: 2.0 mg/kg/injection, schedule: Q01DX Z (ip), vehicle: saline); 118 % of control (dose: 2.03 mg/kg/injection, schedule: Q01DX Z (ip), vehicle: carboxymethylcellulose (CMC)); 152 % of control (dose: 4.0 mg/kg/injection, schedule: Q01DX001 (ip), vehicle: saline); 117 % of control (dose: 4.0 mg/kg/injection, schedule: Q01DX Z (ip), vehicle: saline). Also, the T/C reads like this: (dose: 5.0 mg/kg/injection, schedule: Q01DX001 (ip), vehicle: saline) 194 % of control; (dose: 6.7 mg/kg/injection, schedule: Q01DX Z (ip), vehicle: saline) 118 % of control; (dose: 8.0 mg/kg/injection, schedule: Q01DX001 (ip), vehicle: saline) 97 % of control.
For `CCCCCCCCCC[n+]1cccc(C(N)=O)c1`, the T/C is 93 % of control (dose: 5.0 mg/kg/injection, schedule: Q04DX003 (ip), vehicle: saline); 96 % of control (dose: 10.0 mg/kg/injection, schedule: Q04DX003 (ip), vehicle: saline); 96 % of control (dose: 20.0 mg/kg/injection, schedule: Q04DX003 (ip), vehicle: saline).
Take `CCOP(=O)(OCC)Oc1cc(C)c(N(C)C)c(C)c1`: the T/C under setting [1] was 101 % of control and the T/C under setting [2] is 90 % of control.
Turning to `CCCCCC(=O)c1c(O)cc(=O)oc1C`, the T/C was 95 % of control (dose: 3.12 mg/kg/injection, schedule: Q01DX009 (ip), vehicle: Klucel (hydroxypropylcellulose) (HPC)); 98 % of control (dose: 6.25 mg/kg/injection, schedule: Q01DX009 (ip), vehicle: Klucel (hydroxypropylcellulose) (HPC)); 103 % of control under setting [3]; 90 % of control under setting [4].
`COc1cc(C(=O)Cl)cc(OC)c1OC`: the T/C reads like this: (dose: 18.75 mg/kg/injection, schedule: Q04DX003 (ip), vehicle: saline with Tween-80) 107 % of control; (dose: 37.5 mg/kg/injection, schedule: Q04DX003 (ip), vehicle: saline with Tween-80) 102 % of control; (dose: 75.0 mg/kg/injection, schedule: Q04DX003 (ip), vehicle: saline with Tween-80) 95 % of control.
With `S=c1sc2ccccc2n1CN(c1ccccc1)c1ccc2ccccc2c1`, the T/C was 88 % of control under setting [5]; 88 % of control under setting [6]; 90 % of control under setting [7]; 88 % of control under setting [8]; 94 % of control under setting [9]; 93 % of control under setting [10].
Consider `CCC(C)c1cccc(OP(=O)(CC(C)CC(C)(C)C)Oc2ccccc2C(C)CC)c1` (stereo not drawn), for which the T/C (dose: 50.0 mg/kg/injection, schedule: Q01DX001 (ip), vehicle: acetone) is 94 % of control; the T/C (dose: 100.0 mg/kg/injection, schedule: Q01DX001 (ip), vehicle: acetone) was 94 % of control; the T/C (dose: 200.0 mg/kg/injection, schedule: Q01DX001 (ip), vehicle: acetone) was 93 % of control.
With `CN(CC(O)CN)c1ccccc1` (stereo not drawn), the T/C was 102 % of control (dose: 100.0 mg/kg/injection, schedule: Q01DX001 (ip), vehicle: saline) and 94 % of control (dose: 200.0 mg/kg/injection, schedule: Q01DX001 (ip), vehicle: saline).
As to `Cc1ccc(SCCN)cc1`, the T/C was 105 % of control under setting [1] and 96 % of control under setting [2].
With `O=C1C=C(O)c2cc(Br)ccc2C1=O.[Ag]`, the T/C (dose: 100.0 mg/kg/injection, schedule: Q04DX002 (ip), vehicle: saline) is 105 % of control.
For the molecule `COC(=O)C1CCCC(=O)C1C(=O)OC` (stereo not drawn), the T/C is 106 % of control under setting [11], 97 % of control under setting [12] and 104 % of control under setting [13].
As to `CC(=O)Nc1ccc(Cl)c(Cl)c1`, the T/C is, setting by setting: under setting [4], 107 % of control; under setting [11], 101 % of control; under setting [14], 114 % of control; under setting [12], 98 % of control; under setting [15], 87 % of control; under setting [13], 101 % of control.
For the molecule `CCCC1(CCC)c2ccccc2C(CCl)(OCC)c2ccccc21`, the T/C reads like this: (dose: 100.0 mg/kg/injection, schedule: Q01DX009 (ip), vehicle: other) 91 % of control; under setting [11], 100 % of control; (dose: 200.0 mg/kg/injection, schedule: Q01DX009 (ip), vehicle: other) 88 % of control; under setting [12], 103 % of control; (dose: 400.0 mg/kg/injection, schedule: Q01DX009 (ip), vehicle: other) 92 % of control; under setting [13], 95 % of control.
Consider `Cl/N=C(/c1ccccc1)c1ccc(Cl)cc1`, for which the T/C runs as follows: under setting [4], 105 % of control; under setting [14], 102 % of control; under setting [15], 104 % of control.
In the case of `CCCCCCCCCCCCCCCC(=O)N(CCCN)CCCN`, the T/C (dose: 12.5 mg/kg/injection, schedule: Q01DX009 (ip), vehicle: saline with Tween-80) was 109 % of control; the T/C (dose: 12.5 mg/kg/injection, schedule: Q04DX003 (ip), vehicle: saline) was 98 % of control; the T/C (dose: 25.0 mg/kg/injection, schedule: Q04DX003 (ip), vehicle: saline) was 103 % of control; the T/C (dose: 50.0 mg/kg/injection, schedule: Q04DX003 (ip), vehicle: saline) is 101 % of control.
Consider `O=S1(=O)C2C=CCC1C(Cl)CC2` (stereo not drawn), for which the T/C by setting is: (dose: 12.5 mg/kg/injection, schedule: Q01DX001 (ip), vehicle: Klucel (hydroxypropylcellulose) (HPC)) 97 % of control; under setting [3], 92 % of control; (dose: 25.0 mg/kg/injection, schedule: Q01DX001 (ip), vehicle: Klucel (hydroxypropylcellulose) (HPC)) 95 % of control; (dose: 25.0 mg/kg/injection, schedule: Q01DX009 (ip), vehicle: Klucel (hydroxypropylcellulose) (HPC)) 89 % of control; (dose: 50.0 mg/kg/injection, schedule: Q01DX001 (ip), vehicle: Klucel (hydroxypropylcellulose) (HPC)) 93 % of control.
In the case of `COC1OC(COCc2ccccc2)C(OCc2ccccc2)C(OC)C1O` (stereo not drawn), the T/C is 96 % of control under setting [6], 94 % of control under setting [8] and 104 % of control under setting [10].
Consider `C=C(C)COC(N)=O`, for which the T/C under setting [5] was 95 % of control; the T/C under setting [6] is 102 % of control; the T/C under setting [7] is 96 % of control; the T/C under setting [8] was 102 % of control; the T/C under setting [9] is 91 % of control; the T/C under setting [10] is 103 % of control.
